Results taken from US20250353841A1 (BIOGEN MA INC., priority 2022, published 2025).

These molecules were tested on mutant Huntington (HTT) protein (assay: HTT Mutant HTRF iPSC assay (mHTT protein lowering)). Conditions: human iPSC derived from a HTT patient with a poly-Q49 mutation.
Type: cell-based

Row | Structure (SMILES) | IC50 [nM]
1 | Cc1cn2nc(-c3cc(F)c4nc(C(=O)NC5CN(C(C)C)C5)cn4c3)cc(C)c2n1 [Compound 331, 6-(2,8-dimethylimidazo[1,2-b]pyridazin-6-yl)-8-fluoro-N-(1-isopropylazetidin-3-yl)imidazo[1,2-a]pyridine-2-carboxamide] | < 100
2 | Cc1cn2nc(-c3cc(F)c4nc(C(=O)N(C)C5CCN(C)CC5)cn4c3)cc(C)c2n1 [Compound 332, 6-(2,8-dimethylimidazo[1,2-b]pyridazin-6-yl)-8-fluoro-N-methyl-N-(1-methylpiperidin-4-yl)imidazo[1,2-a]pyridine-2-carboxamide] | < 100
3 | Cc1cn2nc(-c3cc(F)c4nc(C(=O)NCC5CCCN5C)cn4c3)cc(C)c2n1 (stereo not drawn) [Compound 334, 6-(2,8-dimethylimidazo[1,2-b]pyridazin-6-yl)-8-fluoro-N-((1-methylpyrrolidin-2-yl)methyl)imidazo[1,2-a]pyridine-2-carboxamide] | 100 to 1000
4 | Cc1cn2nc(-c3cc(F)c4nc(C(=O)NC[C@H]5CCCCN5C)cn4c3)cc(C)c2n1 [Compound 335, 6-(2,8-dimethylimidazo[1,2-b]pyridazin-6-yl)-8-fluoro-N-[[(2R)-1-methyl-2-piperidyl]methyl]imidazo[1,2-a]pyridine-2-carboxamide] | 100 to 1000
5 | COCCN1CC(NC(=O)c2cn3cc(-c4cc(C)c5nc(C)cn5n4)cc(F)c3n2)C1 [Compound 338, 6-(2,8-dimethylimidazo[1,2-b]pyridazin-6-yl)-8-fluoro-N-[1-(2-methoxyethyl)azetidin-3-yl]imidazo[1,2-a]pyridine-2-carboxamide] | < 100
6 | Cc1cn2nc(-c3cc(F)c4nc(C(=O)NC5CN(CC6CC6)C5)cn4c3)cc(C)c2n1 [Compound 339, N-[1-(cyclopropylmethyl)azetidin-3-yl]-6-(2,8-dimethylimidazo[1,2-b]pyridazin-6-yl)-8-fluoro-imidazo[1,2-a]pyridine-2-carboxamide] | < 100
7 | Cc1cn2nc(-c3cc(F)c4nn(C5CCNCC5)cc4c3)cc(C(F)F)c2n1 [Compound 350, 8-(difluoromethyl)-6-[7-fluoro-2-(4-piperidyl)indazol-5-yl]-2-methyl-imidazo[1,2-b]pyridazine] | < 100
8 | Cc1cc(-c2cc(F)c3nn(C4CCNCC4)cc3c2)cc2cn(C)nc12 [Compound 351, 7-fluoro-2′,7′-dimethyl-2-(piperidin-4-yl)-2H,2′H-5,5′-biindazole] | 100 to 1000
9 | Fc1cc(-c2ccc3nc(C(F)F)cn3n2)cc2cn(C3CCNCC3)nc12 [Compound 352, 2-(difluoromethyl)-6-(7-fluoro-2-(piperidin-4-yl)-2H-indazol-5-yl)imidazo[1,2-b]pyridazine] | 1000 to 9000
10 | Cc1cc(-c2cc(F)c3nn(C4CCNCC4)cc3c2)nc2cn(C)nc12 [Compound 353, 5-(7-fluoro-2-(piperidin-4-yl)-2H-indazol-5-yl)-2,7-dimethyl-2H-pyrazolo[4,3-b]pyridine] | 100 to 1000
11 | Cc1cn2nc(-c3cc(F)c4nn(C5CCN(C6CC6)CC5)cc4c3)cc(C(F)F)c2n1 [Compound 354, 6-(2-(1-cyclopropylpiperidin-4-yl)-7-fluoro-2H-indazol-5-yl)-8-(difluoromethyl)-2-methylimidazo[1,2-b]pyridazine] | 100 to 1000
12 | Cc1cn2nc(-c3cc(F)c4nn(C5CCNCC5)cc4c3)cc(C)c2n1 [Compound 355, 6-(7-fluoro-2-(piperidin-4-yl)-2H-indazol-5-yl)-2,8-dimethylimidazo[1,2-b]pyridazine] | < 100
13 | Cc1cc(-c2cc(F)c3nn(C4CCN(C)CC4)cc3c2)cc2cn(C)nc12 [Compound 356, 7-fluoro-2′,7′-dimethyl-2-(1-methylpiperidin-4-yl)-2H,2′H-5,5′-biindazole] | 100 to 1000
14 | CCc1cc(-c2cc(F)c3nn(C4CCN(C)CC4)cc3c2)nn2cc(C)nc12 [Compound 357, 8-ethyl-6-(7-fluoro-2-(1-methylpiperidin-4-yl)-2H-indazol-5-yl)-2-methylimidazo[1,2-b]pyridazine] | 100 to 1000
15 | COc1cc(-c2cc(F)c3nn(C4CCN(C)CC4)cc3c2)nn2nc(C)nc12 [Compound 358, 6-(7-fluoro-2-(1-methylpiperidin-4-yl)-2H-indazol-5-yl)-8-methoxy-2-methyl-[1,2,4]triazolo[1,5-b]pyridazine] | < 100
16 | Cc1nc2c(C)cc(-c3cc(F)c4nn(C5CCN(C)CC5)cc4c3)nn2n1 [Compound 359, 6-(7-fluoro-2-(1-methylpiperidin-4-yl)-2H-indazol-5-yl)-2,8-dimethyl-[1,2,4]triazolo[1,5-b]pyridazine] | < 100
17 | Cc1cc2nc(-c3cc(F)c4nn(C5CCN(C)CC5)cc4c3)cc(C)n2n1 [Compound 360, 5-(7-fluoro-2-(1-methylpiperidin-4-yl)-2H-indazol-5-yl)-2,7-dimethylpyrazolo[1,5-a]pyrimidine] | 100 to 1000
18 | Cc1cn2nc(-c3cc(F)c4nn([C@H]5[C@@H]6CNC[C@@H]65)cc4c3)cc(C)c2n1 [Compound 361, 6-[2-[(1R,5S)-3-azabicyclo[3.1.0]hexan-6-yl]-7-fluoro-indazol-5-yl]-2,8-dimethyl-imidazo[1,2-b]pyridazine] | < 100

Row | Structure (SMILES) | IC50 [nM]
19 | Cc1cn2nc(-c3cc(F)c4nn(C5CCN(C)CC5)cc4c3)cc(C)c2n1 [Compound 362, 6-(7-fluoro-2-(1-methylpiperidin-4-yl)-2H-indazol-5-yl)-2,8-dimethylimidazo[1,2-b]pyridazine] | < 100
20 | Cc1cn2nc(-c3cc(F)c4nn(C5CCN(C)CC5)cc4c3)cc(C(F)F)c2n1 [Compound 363, 8-(difluoromethyl)-6-(7-fluoro-2-(1-methylpiperidin-4-yl)-2H-indazol-5-yl)-2-methylimidazo[1,2-b]pyridazine] | < 100
21 | Cc1cn2nc(-c3cc(F)c4nn(C5CCN(C)CC5)cc4c3)cc(C)c2n1 [Compound 364, 6-(7-fluoro-2-(1-methylpiperidin-4-yl)-2H-indazol-5-yl)-2,8-dimethylimidazo[1,2-b]pyridazine] | 100 to 1000
22 | Cc1cn2nc(-c3cc(F)c4nn(C5CCNCC5)cc4c3)ccc2n1 [Compound 365, 6-(7-fluoro-2-(piperidin-4-yl)-2H-indazol-5-yl)-2-methylimidazo[1,2-b]pyridazine] | < 100
23 | Cc1cn2nc(-c3cc(F)c4nn(C5CCN(C)C5)cc4c3)cc(C)c2n1 (stereo not drawn) [Compound 366, 6-(7-fluoro-2-(1-methylpyrrolidin-3-yl)-2H-indazol-5-yl)-2,8-dimethylimidazo[1,2-b]pyridazine] | 1000 to 9000
24 | Cc1cn2nc(-c3cc(F)c4nn([C@H]5[C@@H]6CN(CC7CC7)C[C@@H]65)cc4c3)cc(C)c2n1 [Compound 367, 6-[2-[(1R,5S)-3-(cyclopropylmethyl)-3-azabicyclo[3.1.0]hexan-6-yl]-7-fluoro-indazol-5-yl]-2,8-dimethyl-imidazo[1,2-b]pyridazine] | 100 to 1000
25 | CNC1CCC(n2cc3cc(-c4cc(C)c5nc(C)cn5n4)cc(F)c3n2)CC1 (stereo not drawn) [Compound 368, 4-(5-(2,8-dimethylimidazo[1,2-b]pyridazin-6-yl)-7-fluoro-2H-indazol-2-yl)-N-methylcyclohexan-1-amine] | 100 to 1000
26 | Cc1cn2cc(-c3cc(F)c4nn(C5CCNCC5)cc4c3)cc2c(C)n1 [Compound 369, 5-(1,3-dimethylpyrrolo[1,2-a]pyrazin-7-yl)-7-fluoro-2-(piperidin-4-yl)-2H-indazole] | < 100
27 | Cc1cn2nc(-c3cc(F)c4nn(C5CCN(C)CC5)cc4c3)cc2c(C)n1 [Compound 371, 2-(7-fluoro-2-(1-methylpiperidin-4-yl)-2H-indazol-5-yl)-4,6-dimethylpyrazolo[1,5-a]pyrazine] | 100 to 1000
28 | Cc1cn2nc(-c3cc(F)c4nn(C5CCN(CC6CC6)CC5)cc4c3)cc2c(C)n1 [Compound 372, 2-(2-(1-(cyclopropylmethyl)piperidin-4-yl)-7-fluoro-2H-indazol-5-yl)-4,6-dimethylpyrazolo[1,5-a]pyrazine] | < 100
29 | COCCN1CCC(n2cc3cc(-c4cc(C(F)(F)F)c5nc(C)cn5n4)cc(F)c3n2)CC1 [Compound 373, 6-(7-fluoro-2-(1-(2-methoxyethyl)piperidin-4-yl)-2H-indazol-5-yl)-2-methyl-8-(trifluoromethyl)imidazo [1,2-b]pyridazine] | < 100
30 | Cc1cn2nc(-c3cc(F)c4nn(C5CCNCC5)nc4c3)cc(C(F)F)c2n1 [Compound 374, 6-[8-(difluoromethyl)-2-methyl-imidazo[1,2-b]pyridazin-6-yl]-4-fluoro-2-(4-piperidyl)benzotriazole] | < 100
31 | Cc1cn2nc(-c3cc(F)c4nn(C5CCN(C)CC5)nc4c3)cc(C(F)F)c2n1 [Compound 375, 6-[8-(difluoromethyl)-2-methyl-imidazo[1,2-b]pyridazin-6-yl]-4-fluoro-2-(1-methyl-4-piperidyl)benzotriazole] | 100 to 1000
32 | CCN1CCC(n2nc3cc(-c4cc(C)c5nc(C)cn5n4)cc(F)c3n2)CC1 [Compound 376, 6-(2,8-dimethylimidazo[1,2-b]pyridazin-6-yl)-2-(1-ethyl-4-piperidyl)-4-fluoro-benzotriazole] | 100 to 1000
33 | CCN1CCC(n2nc3cc(-c4cc(C(F)F)c5nc(C)cn5n4)cc(F)c3n2)CC1 [Compound 377, 6-(8-(difluoromethyl)-2-methylimidazo[1,2-b]pyridazin-6-yl)-2-(1-ethylpiperidin-4-yl)-4-fluoro-2H-benzo[d][1,2,3]triazole] | 100 to 1000
34 | Cc1cn2cc(-c3cc(F)c4nn(C5CCNCC5)nc4c3)cc2c(C)n1 [Compound 378, 6-(1,3-dimethylpyrrolo[1,2-a]pyrazin-7-yl)-4-fluoro-2-(piperidin-4-yl)-2H-benzo[d][1,2,3]triazole] | 100 to 1000
35 | CCc1nc(C)cn2cc(-c3cc(F)c4nn(C5CCNCC5)nc4c3)cc12 [Compound 379, 6-(1-ethyl-3-methylpyrrolo[1,2-a]pyrazin-7-yl)-4-fluoro-2-(piperidin-4-yl)-2H-benzo[d][1,2,3]triazole] | 100 to 1000
36 | Cc1cn2nc(-c3cc(F)c4nn(C5CCN(C)CC5)nc4c3)cc(C)c2n1 [Compound 380, 6-(2,8-dimethylimidazo[1,2-b]pyridazin-6-yl)-4-fluoro-2-(1-methyl-4-piperidyl)benzotriazole] | 100 to 1000
